These molecules were tested against T1, full length active recombinant SYK enzyme (Homo sapiens, UniProt P43405) (assay: Inhibition of Syk tyrosine phosphorylation activity (LANCE TR-FRET kinase assay)). Conditions: 1 nM active SYK enzyme, 550 nM SYK-substrate, 100 μM ATP, 1 hour at room temperature.
T1 construct: full length active recombinant SYK enzyme (Millipore, Calif.); purchased Millipore
Type: biochemical
Molecule `Cc1cccc(Nc2nc(N[C@H](CC(C)C)C(N)=O)nnc2C(N)=O)c1` [Example 120, (R)-3-((1-amino-4-methyl-1-oxopentan-2-yl)amino)-5-(m-tolylamino)-1,2,4-triazine-6-carboxamide] has an IC50 of 10 to 100 nM.
Molecule `Cc1ccc(Nc2nc(N[C@H](CC(C)C)C(N)=O)nnc2C(N)=O)cc1` [Example 121, (R)-3-((1-amino-4-methyl-1-oxopentan-2-yl)amino)-5-(p-tolylamino)-1,2,4-triazine-6-carboxamide] has an IC50 of 10 to 100 nM.
Molecule `NC(=O)c1nnc(N[C@@H]2CCCC[C@@H]2N)nc1Nc1cnc2ccc(F)cc2c1` [Example 122, 3-(((1R,2S)-2-aminocyclohexyl)amino)-5-((6-fluoroquinolin-3-yl)amino)-1,2,4-triazine-6-carboxamide] has an IC50 of 10 to 100 nM.
For `CC[C@@H](Nc1nnc(C(N)=O)c(Nc2cnc3ccc(F)cc3c2)n1)C(N)=O` [Example 123, (R)-3-((1-amino-1-oxobutan-2-yl)amino)-5-((6-fluoroquinolin-3-yl)amino)-1,2,4-triazine-6-carboxamide], the IC50 was 10 to 100 nM.
`NC(=O)c1nnc(N[C@@H]2CCCC[C@@H]2N)nc1Nc1cccc(OC(F)F)c1` [Example 124, 3-(((1R,2S)-2-aminocyclohexyl)amino)-5-((3-(difluoromethoxy)phenyl)amino)-1,2,4-triazine-6-carboxamide] was tested, and the IC50 was 1 to 10 nM.
`COc1ccc(Nc2nc(N[C@@H]3CCCC[C@@H]3N)nnc2C(N)=O)cc1Cl` [Example 125, 3-(((1R,2S)-2-aminocyclohexyl)amino)-5-((3-chloro-4-methoxyphenyl)amino)-1,2,4-triazine-6-carboxamide] showed an IC50 of 1 to 10 nM.
Molecule `NC(=O)c1nnc(N[C@@H]2CCCC[C@@H]2N)nc1Nc1ccc2cn[nH]c2c1` [Example 126, 5-((1H-indazol-6-yl)amino)-3-(((1R,2S)-2-aminocyclohexyl)amino)-1,2,4-triazine-6-carboxamide] has an IC50 of under 1 nM.
`NC(=O)c1nnc(N[C@@H]2CCCC[C@@H]2N)nc1Nc1cc(-c2ccc(F)cc2)on1` [Example 127, 3-(((1R,2S)-2-aminocyclohexyl)amino)-5-((5-(4-fluorophenyl)isoxazol-3-yl)amino)-1,2,4-triazine-6-carboxamide] was tested, and the IC50 was 100 to 1000 nM.
For `CC[C@@H](Nc1nnc(C(N)=O)c(Nc2ccc3cn[nH]c3c2)n1)C(N)=O` [Example 128, (R)-5-((1H-indazol-6-yl)amino)-3-((1-amino-1-oxobutan-2-yl)amino)-1,2,4-triazine-6-carboxamide], the IC50 was 1 to 10 nM.
With `Cn1ccc2c(Nc3nc(N[C@@H]4CCCC[C@@H]4N)nnc3C(N)=O)ccnc21` [Example 129, 3-(((1R,2S)-2-aminocyclohexyl)amino)-5-((1-methyl-1H-pyrrolo[2,3-b]pyridin-4-yl)amino)-1,2,4-triazine-6-carboxamide] the IC50 was under 1 nM.
In the case of `NC(=O)c1nnc(N[C@@H]2CCCC(F)(F)[C@@H]2N)nc1Nc1cccc(-c2ncco2)c1` [Example 130, 3-(((1R,2R)-2-amino-3,3-difluorocyclohexyl)amino)-5-((3-(oxazol-2-yl)phenyl)amino)-1,2,4-triazine-6-carboxamide], the IC50 is reported as over 1000 nM.
With `NC(=O)c1nnc(N[C@@H]2CCCC[C@@H]2N)nc1Nc1ccc(-c2ncco2)cc1` [Example 131, 3-(((1R,2S)-2-aminocyclohexyl)amino)-5-((4-(oxazol-2-yl)phenyl)amino)-1,2,4-triazine-6-carboxamide] the IC50 was 1 to 10 nM.
`NC(=O)c1nnc(N[C@@H]2CCCC(F)(F)[C@@H]2N)nc1Nc1ccc(-c2ncco2)cc1` [Example 132, 3-(((1R,2R)-2-amino-3,3-difluorocyclohexyl)amino)-5-((4-(oxazol-2-yl)phenyl)amino)-1,2,4-triazine-6-carboxamide] gave an IC50 of 10 to 100 nM.
With `NC(=O)c1nnc(N[C@@H]2CCCC[C@@H]2N)nc1Nc1cncs1` [Example 133, 3-(((1R,2S)-2-aminocyclohexyl)amino)-5-(thiazol-5-ylamino)-1,2,4-triazine-6-carboxamide] the IC50 was 10 to 100 nM.
`CC[C@@H](Nc1nnc(C(N)=O)c(Nc2ccc(C(F)(F)F)c(C(F)(F)F)c2)n1)C(N)=O` [Example 135, (R)-3-((1-amino-1-oxobutan-2-yl)amino)-5-((3,4-bis(trifluoromethyl)phenyl)amino)-1,2,4-triazine-6-carboxamide] was tested, and the IC50 was 10 to 100 nM.
With `Cn1cc(C#N)c2ccc(Nc3nc(N[C@@H]4CCCC[C@@H]4N)nnc3C(N)=O)cc21` [Example 136, 3-(((1R,2S)-2-aminocyclohexyl)amino)-5-((3-cyano-1-methyl-1H-indol-6-yl)amino)-1,2,4-triazine-6-carboxamide] the IC50 was 1 to 10 nM.
`NC(=O)c1nnc(N[C@@H]2CCCC[C@@H]2N)nc1Nc1nc(-c2ccccc2)no1` [Example 138, 3-(((1R,2S)-2-aminocyclohexyl)amino)-5-((3-phenyl-1,2,4-oxadiazol-5-yl)amino)-1,2,4-triazine-6-carboxamide] was tested, and the IC50 was over 1000 nM.
`Cn1ncc2c(Nc3nc(N[C@@H]4CCOC[C@@H]4N)nnc3C(N)=O)cccc21` [Example 139, 3-(((3R,4R)-3-aminotetrahydro-2H-pyran-4-yl)amino)-5-((1-methyl-1H-indazol-4-yl)amino)-1,2,4-triazine-6-carboxamide] showed an IC50 of 10 to 100 nM.
With `CC[C@@H](Nc1nnc(C(N)=O)c(Nc2cc(C)ns2)n1)C(N)=O` [Example 140, (R)-3-((1-amino-1-oxobutan-2-yl)amino)-5-((3-methylisothiazol-5-yl)amino)-1,2,4-triazine-6-carboxamide] the IC50 was 10 to 100 nM.
Work on `Cc1cc(Nc2nc(N[C@H](CC3CC3)C(N)=O)nnc2C(N)=O)sn1` [Example 141, (R)-3-((1-amino-3-cyclopropyl-1-oxopropan-2-yl)amino)-5-((3-methylisothiazol-5-yl)amino)-1,2,4-triazine-6-carboxamide] yielded an IC50 of 10 to 100 nM.
`Cc1cc(Nc2nc(N[C@@H]3CCOC[C@@H]3N)nnc2C(N)=O)sn1` [Example 142, 3-(((3R,4R)-3-aminotetrahydro-2H-pyran-4-yl)amino)-5-((3-methylisothiazol-5-yl)amino)-1,2,4-triazine-6-carboxamide] showed an IC50 of 10 to 100 nM.
Molecule `Cc1ccc(Nc2nc(N[C@H](CC(F)F)C(N)=O)nnc2C(N)=O)cc1` [Example 143, (R)-3-((1-amino-4,4-difluoro-1-oxobutan-2-yl)amino)-5-(p-tolylamino)-1,2,4-triazine-6-carboxamide] has an IC50 of 10 to 100 nM.
`Cc1ccc(Nc2nc(N[C@H](CC(F)(F)F)C(N)=O)nnc2C(N)=O)cc1` [Example 144, (R)-3-((1-amino-4,4,4-trifluoro-1-oxobutan-2-yl)amino)-5-(p-tolylamino)-1,2,4-triazine-6-carboxamide] showed an IC50 of 10 to 100 nM.
With `Cc1ccc(Nc2nc(N[C@@H]3CCOC[C@@H]3N)nnc2C(N)=O)cc1C` [Example 145, 3-(((3R,4R)-3-aminotetrahydro-2H-pyran-4-yl)amino)-5-((3,4-dimethylphenyl)amino)-1,2,4-triazine-6-carboxamide] the IC50 was 1 to 10 nM.
With `CC[C@@H](Nc1nnc(C(N)=O)c(Nc2cnc3cccnc3c2)n1)C(N)=O` [Example 146, (R)-5-((1,5-naphthyridin-3-yl)amino)-3-((1-amino-1-oxobutan-2-yl)amino)-1,2,4-triazine-6-carboxamide] the IC50 was 100 to 1000 nM.
`Cn1cc(C#N)c2ccc(Nc3nc(N[C@H](CC(F)F)C(N)=O)nnc3C(N)=O)cc21` [Example 147, (R)-3-((1-amino-4,4-difluoro-1-oxobutan-2-yl)amino)-5-((3-cyano-1-methyl-1H-indol-6-yl)amino)-1,2,4-triazine-6-carboxamide] was tested, and the IC50 was 1 to 10 nM.
In the case of `Cn1ccc2c(Nc3nc(N[C@@H]4CCCC[C@@H]4N)nnc3C(N)=O)cncc21` [Example 148, 3-(((1R,2S)-2-aminocyclohexyl)amino)-5-((1-methyl-1H-pyrrolo[2,3-c]pyridin-4-yl)amino)-1,2,4-triazine-6-carboxamide], the IC50 is reported as 1 to 10 nM.
With `NC(=O)c1nnc(N[C@H](CC(F)(F)F)C(N)=O)nc1Nc1ccc2ncccc2c1` [Example 149, (R)-3-((1-amino-4,4,4-trifluoro-1-oxobutan-2-yl)amino)-5-(quinolin-6-ylamino)-1,2,4-triazine-6-carboxamide] the IC50 was 1 to 10 nM.
Molecule `NC(=O)c1nnc(N[C@H](CC(F)F)C(N)=O)nc1Nc1ccc2ncccc2c1` [Example 150, (R)-3-((1-amino-4,4-difluoro-1-oxobutan-2-yl)amino)-5-(quinolin-6-ylamino)-1,2,4-triazine-6-carboxamide] has an IC50 of 1 to 10 nM.
In the case of `Cn1ccc2cc(Nc3nc(N[C@@H]4CCCC(F)(F)[C@@H]4N)nnc3C(N)=O)cnc21` [Example 151, 3-(((1R,2R)-2-amino-3,3-difluorocyclohexyl)amino)-5-((1-methyl-1H-pyrrolo[2,3-b]pyridin-5-yl)amino)-1,2,4-triazine-6-carboxamide], the IC50 is reported as 100 to 1000 nM.
With `CC[C@@H](Nc1nnc(C(N)=O)c(Nc2cnc3c(ccn3C)c2)n1)C(N)=O` [Example 152, (R)-3-((1-amino-1-oxobutan-2-yl)amino)-5-((1-methyl-1H-pyrrolo[2,3-b]pyridin-5-yl)amino)-1,2,4-triazine-6-carboxamide] the IC50 was 10 to 100 nM.
In the case of `Cn1ccc2cc(Nc3nc(N[C@H]4CN[C@@H](CO)C4)nnc3C(N)=O)cnc21` [Example 153, 3-(((3R,5R)-5-(hydroxymethyl)pyrrolidin-3-yl)amino)-5-((1-methyl-1H-pyrrolo[2,3-b]pyridin-5-yl)amino)-1,2,4-triazine-6-carboxamide], the IC50 is reported as 10 to 100 nM.
`Cn1ccc2cc(Nc3nc(N[C@@H]4CCCC[C@@H]4N)nnc3C(N)=O)cnc21` [Example 154, 3-(((1R,2S)-2-aminocyclohexyl)amino)-5-((1-methyl-1H-pyrrolo[2,3-b]pyridin-5-yl)amino)-1,2,4-triazine-6-carboxamide] gave an IC50 of 1 to 10 nM.
Work on `NC(=O)c1nnc(N[C@@H]2CCCC[C@@H]2N)nc1Nc1cnc2cc(F)ccc2c1` [Example 158, 3-(((1R,2S)-2-aminocyclohexyl)amino)-5-((7-fluoroquinolin-3-yl)amino)-1,2,4-triazine-6-carboxamide] yielded an IC50 of 1 to 10 nM.
`CC[C@@H](Nc1nnc(C(N)=O)c(Nc2cnc3cc(F)ccc3c2)n1)C(N)=O` [Example 159, (R)-3-((1-amino-1-oxobutan-2-yl)amino)-5-((7-fluoroquinolin-3-yl)amino)-1,2,4-triazine-6-carboxamide] showed an IC50 of 10 to 100 nM.

Reference: patent US9040530B2, “1,2,4-triazine-6-carboxamide kinase inhibitors” (Portola Pharmaceuticals, Inc., priority 2012, dated 2015)
